Measured values reported in patent US20100126880A1 (priority 2006, published 2010).

Test system: dsDNA
Text: Intercalation properties of EDOT-ND-Os were further studied by competitive displacement assay.

## N[3-(imidazol-1-yl)propyl]-N′-[8-((2,3-dihydrothieno[3,4-b][1,4]dioxin-3-yl)methoxy)-3,6-dioxaoctyl]-1,4,5,8-naphthalenetetracarboxydiimide complex with Os(bpy)2Cl2 [EDOT-ND-Os]
  binding constant: 8×10^4
